Here are results for five compounds from patent US20240424002A1, “METHODS AND COMPOSITIONS FOR TREATING MELANOMA” (THE REGENTS OF THE UNIVERSITY OF CALIFORNIA, priority 2021, published 2024).

Molecules are shown by their SMILES. Entries after “also recorded” stand apart in the source; their conditions may differ.

Experiment [1] deals with M249-VSR sublines. Description: Viability assay for inducing and protecting from ferroptosis. Format: cell-based, human. Conditions: added in combination with RSL3; CellTiter-Glo 24 hr after treatment; FIG. 7B-C / 24B-C. Here is the method:
6000 cells were seeded per well in 96-well plates and treated with ferroptosis inducing agents in combination with vehicle, GSH (Sigma, G4376), Trolox (Acros Organics, 218940010) or DFO (Sigma, D9533) next day. CellTiter-Glo luminescence was assessed 24 hr after treatment. For quantification, all values are normalized to vehicle conditions. Resistance cells were maintained in full dose of MAPK inhibitors throughout the treatments to keep the BRAF amplifications.
(In general: In ATP-based viability assays light output follows the ATP content of the culture.)

In experiment [2] the test system is SC4 DM+ cells (M249-VSR single-cell-derived clone). Description: FISH assessment of HSRs after long-term DNA-PK inhibition. Format: cell-based, human. Particulars: 5 μM NU7026 for 107 days vs DMSO 90 days; FIG. 2E. As to the method:
(§1) Cells were blocked at metaphases by adding colcemid (KaryoMax, Thermo Fisher Scientific) at a final concentration of 0.05 μg/ml followed by incubation at 37° C. for 6-8 hours. Cells were then fixed using methanol:acetic acid (3:1). FISH slides were prepared by dropping fixed cells in a humid environment following the manufacture's protocol provided by Cytotest and Empire Genomics. FFPE xenograft tumor FISH slides were prepared by pepsin digestion followed by similar procedures of cell line FISH. Colored FISH images were taken and processed using confocal microscope Leica TCS SP8 X. Karyotype categorizations were based on the guidelines in FIG. 8. The fractions under certain images represent the number of cases for corresponding karyotype divided by total number of cases analyzed. If not otherwise mentioned, scale bars in FISH images represent 10 μm. Centromere probe names are abbreviated as CEN-x. DM numbers were quantified by directly counting the number of features in the FISH images or by using ecDNA quantification tool EcSeg (93). HSR lengths were quantified by dividing the probe area by chromosomal DAPI area in metaphases. The staining areas were calculated using ImageJ v1.53a. Cells fixed by the same procedure were also used for G-banding. G-banded metaphase spreads were photographed using 80i Nikon Microscope and Applied Spectral Imaging (ASI) Karyotyping system. […]

The test system of experiment [3] is SC2 cells (M249-VSR HSR subclone). Description: FISH count of HSRs per cell after long-term DNA-PK inhibition. It is filed as cell-based, human. Conditions: 5 μM NU7026 for three months vs DMSO; FIG. 2G. Here is the method:
as §1

Experiment [4] relates to M249-P, M249-VSR-DM and M249-VSR-HSR cells. Description: Dose response curve of ferroptosis inducing agents, viability by CellTiter-Glo. Format: cell-based, human. Particulars: for sensitivity to RSL3 of M249-VSR after drug withdrawal: after VEM+SEL withdrawal, reduced BRAF copy number. Here is the method:
(§2) The dose response curves of ferroptosis inducing agents RSL3, Erastin and Ferroptocide were performed by seeding appropriate number of cells on day 0 in 96-well plates, […] luminescent assay. If not otherwise mentioned, resistance cells were maintained in full dose of MAPK inhibitors throughout the dose response experiments to keep the BRAF amplifications. Seeding density for each cell line was determined by using the same assay and the same experimental length with multiple cell number titrations. The dose series were generated by serial dilutions. All drugs used for dose response curves were dissolved in DMSO. DMSO toxicity was performed on the cell lines to determine the appropriate DMSO concentration (0.5%), which was used in all doses. The resulting values from viability assays were normalized to the zero-dose condition after subtracting background (wells with no cells). The curve fittings were performed by using three-parameter model in dre v3.0-1 R package (119).

In experiment [5] the test system is A375-DTR cells vs parental. The description is as above. Format: cell-based. As to the method: as §2
Experiment [6] has as its system Mel888-DTR cells vs parental. The description is as above. Format: cell-based. Here is the method:
as §2

Experiment [7] has as its system M249-P and M249-VSR-DM cells. Description: Lipid ROS measurement by flow cytometry. Format: cell-based, human. Particulars: FIG. 23A / 25A.
The test system of experiment [8] is M229P/R, M238P/R and SKMEL28P/R cell lines. Conditions: resistance through upregulation of RTKs, dedifferentiation; cited from earlier work.

`N[C@@H](CCC(=O)N[C@@H](CS)C(=O)NCC(=O)O)C(=O)O` [GSH, reduced glutathione]: the “rescue of RSL3-induced cell death (percent viable cells)” value in experiment [1] is reported as “cell death can be rescued”.
With `O=c1cc(N2CCOCC2)oc2c1ccc1ccccc12` [NU7026], the “frequency of cells displaying HSR integrations” value in experiment [2] was “decreased the frequency of cells displaying HSR integrations”. Also, in experiment [3], the “percentage of cells with multiple HSRs” value is given as “lower percentage of multiple HSRs”.
For the compound `COC(=O)c1ccc([C@@H]2c3[nH]c4ccccc4c3C[C@@H](C(=O)OC)N2C(=O)CCl)cc1` [RSL3], the “sensitivity to RSL3 of M249-VSR-DM and -HSR compared to M249-P” value in experiment [4] (FIG. 7A, 72 hr treatment) is listed as “substantially more sensitive”; in experiment [4] (FIG. 24A, 24 hr treatment, CellTiter-Glo, resistant cells kept in full dose MAPK inhibitors) it was “substantially more sensitive”. Also, the “sensitivity to RSL3 of M249-VSR after drug withdrawal” value in experiment [4] (FIG. 7A, 72 hr treatment) was “lose sensitivity reverting to levels closer to the parental cells”; in experiment [4] (FIG. 24A, 24 hr treatment) it was “lose sensitivity reverting to levels closer to the parental cells”. For the same compound, the “RSL3 sensitivity of A375-DTR compared to parental” value is listed as “increased RSL3 sensitivity” in experiment [5] (FIG. 7A, 72 hr treatment) and “increased RSL3 sensitivity” in experiment [5] (FIG. 24A, 24 hr treatment). Moreover, the “RSL3 sensitivity of Mel888-DTR compared to parental” value in experiment [6] (FIG. 7A, 72 hr treatment) was “increased RSL3 sensitivity”; in experiment [6] (FIG. 24A, 24 hr treatment) it was “increased RSL3 sensitivity”. The “lipid ROS levels upon RSL3 treatment” value in experiment [7] (1 μM RSL3, 24 hr, C11-BODIPY dye) is “increased lipid ROS levels; also recorded: increase in lipid ROS levels”. In addition, the “sensitivity to RSL3 of resistant vs parental lines” value in experiment [8] is listed as “increased sensitivity”.
Consider `Cc1c(C)c2c(c(C)c1O)CCC(C)(C(=O)O)O2` (stereo not shown) [Trolox], for which, in experiment [1], the “rescue of RSL3-induced cell death (percent viable cells)” value is recorded as “cell death can be rescued”. In addition, the “protection against RSL3-induced lipid ROS” value in experiment [7] (150 μM Trolox with 1 μM RSL3, 24 hr) is listed as “protected; also recorded: protects against RSL3-induced lipid ROS”.
As to `C[C@@H]1CC[C@@]23C[C@H](O)C(=O)[C@@]2(O)[C@]1(C)[C@H](OC(=O)CCl)C[C@@H](C1=CCn2c(=O)n(-c4ccccc4)c(=O)n2C1)[C@@H]3C` [ferroptocide], the “sensitivity of BRAF-amplified M249 dual MAPKi-resistant cells compared to parental” value in experiment [4] (FIG. 23B, M249-VSR-DM and -HSR, 72 hr treatment, CellTiter-Glo) was “sensitive”.
